# Values of other authors as cited in patent US10646532B2, “Method for preparing water extract of ashwagandha leaves which has enhanced anti-cancer activity utilizing cyclodextrin, and pharmaceutical composition containing ashwagandha leaves” (National Institute of Advanced Industrial Science and …, priority 2014, dated 2020).
# System: cancer cells / normal cells
# Conditions: in vitro test, background art
smiles,measurement,value
CC1=C(C)C(=O)OC([C@@H](C)C2(O)CC[C@H]3[C@@H]4[C@@H]5O[C@@H]5C5(O)CC=CC(=O)[C@]5(C)[C@H]4CC[C@@]32C)C1 (stereo partly shown) [withanone],cytotoxicity to cancer cells versus normal cells,selective cytotoxicity to cancer cells
